Test results reported in patent US20020198142A1, “Cyclopeptide derivatives” (Merck Patent GmbH, priority 1997, published 2002).

System: mouse MC3T3 H1 osteoblast cultures
Experiment: Cell adhesion test: adhesion of osteoblast cultures in vitro to RGD peptide-coated material surfaces
Format: cell-based
Details: 50,000 cells/cm^2 inoculated, serum-free medium, 37°/95% atmospheric humidity, one hour, adhered cells/inoculated cells x 100
Method: Example of Cell Adhesion Test
The adhesion of mouse MC3T3 H1 osteoblast cultures in vitro to RGD peptide-coated material surfaces was investigated. In the course of this, 50,000 cells/cm^2 were inoculated and, after incubation in serum-free medium at 37°/95% atmospheric humidity for one hour, the proportion of adherent cells was determined.
Cell adhesion rate [%]=adhered cells/inoculated cells x 100

| Substance | cell adhesion rate [%] |
| --- | --- |
| cyclo-(Arg-Gly-Asp-D-Phe-Lys(N^ε—(CO—CH2—O—CH2CH2—O—CH2CH2—NH)2—CO—(CH2)5—NH—CO—CH═CH2)) | 110.5% |
| cyclo-(Arg-Gly-Asp-D-Phe-Lys(N^ε—CO—(CH2)5—NH—CO—(CH2)5—NH—CO—CH═CH2)) | 92.4% |
| cyclo-(Arg-Gly-Asp-D-Phe-Lys(N^ε—CO—(CH2)5—NH—CO—CH═CH2)) | 11.3% |
| cyclo-(Arg-Gly-Asp-D-Phe-Lys(N^ε—CO—CH2CH2CO—NH—CH2CH2—SH)) | 86.2% |
| cyclo-(Arg-Gly-Asp-D-Phe-Lys(N^ε—CO—CH2—O—CH2CH2—O—CH2CH2—NH—CO—(CH2)5—NH—CO—CH═CH2)) | 109.0% |
